In patent US20090263317A1, “METHOD OF SCREENING THE ACTIVITY OF THE SMOOTHENED RECEPTOR TO IDENTIFY THERAPUTIC MODULATION AGENTS OR DIAGNOSE DISEASE” (priority 2005, published 2009):

Target: T1, Smo (Homo sapiens, UniProt Q99835)
T1 construct: expressed in transfected cells; host or cells: HEK293
Assay: Membrane recruitment (translocation) of βarr2-GFP, confocal imaging
Type: cell-based
From the text: Localization of beta-arrestin2 green fluorescent protein (βarr2-GFP) to the plasma membrane in cells overexpressing Smo seen in FIG. 1: Confocal images of βarr2-GFP expressed alone (A) or with Myc-Smo (B) in Human embryonic kidney (HEK)293 cells. (C) Effects of Ptc, ShhN, and G protein coupled receptor kinase (GRK2) on recruitment of βarr2-GFP to the plasma membrane. βarr2-GFP was expressed with Myc-Smo (bar 1), Myc-Smo and FLAG-Ptc (bar 2), Myc-Smo and FLAG-Ptc (co-cultured with HEK293 expressing Sonic hedgehog (Shh)N-terminus, an active form of Shh (bar 3), or Myc-Smo and GRK2 (bar 4) in HEK293 cells. Data are presented as the percentage of βarr2-GFP-13 expressing cells with recruitment of βarr2-GFP and are the means±SEM of three independent experiments. *P<0.05 (compared with bar 1) and **P<0.005 (compared with bar 2) (unpaired t test).
Confocal images of βarr2-GFP expressed with FLAG-Ptc (A), FLAG-Ptc and Myc-Smo (B), and Myc-Smo (C and D) in HEK293 cells. Cells were left untreated (A to C) or treated with 8 μM cyclopamine (D) at 37° C. for 5 min. […] (F and G) Confocal images of cells stimulated with 0.3 μM SAG at 37° C. for 0 min (F) and 30 min (G). HEK293 cells were transfected with βarr2-GFP, FLAG-Ptc, Myc-Smo, and GRK2.

T1 sequence (Q99835 28-787): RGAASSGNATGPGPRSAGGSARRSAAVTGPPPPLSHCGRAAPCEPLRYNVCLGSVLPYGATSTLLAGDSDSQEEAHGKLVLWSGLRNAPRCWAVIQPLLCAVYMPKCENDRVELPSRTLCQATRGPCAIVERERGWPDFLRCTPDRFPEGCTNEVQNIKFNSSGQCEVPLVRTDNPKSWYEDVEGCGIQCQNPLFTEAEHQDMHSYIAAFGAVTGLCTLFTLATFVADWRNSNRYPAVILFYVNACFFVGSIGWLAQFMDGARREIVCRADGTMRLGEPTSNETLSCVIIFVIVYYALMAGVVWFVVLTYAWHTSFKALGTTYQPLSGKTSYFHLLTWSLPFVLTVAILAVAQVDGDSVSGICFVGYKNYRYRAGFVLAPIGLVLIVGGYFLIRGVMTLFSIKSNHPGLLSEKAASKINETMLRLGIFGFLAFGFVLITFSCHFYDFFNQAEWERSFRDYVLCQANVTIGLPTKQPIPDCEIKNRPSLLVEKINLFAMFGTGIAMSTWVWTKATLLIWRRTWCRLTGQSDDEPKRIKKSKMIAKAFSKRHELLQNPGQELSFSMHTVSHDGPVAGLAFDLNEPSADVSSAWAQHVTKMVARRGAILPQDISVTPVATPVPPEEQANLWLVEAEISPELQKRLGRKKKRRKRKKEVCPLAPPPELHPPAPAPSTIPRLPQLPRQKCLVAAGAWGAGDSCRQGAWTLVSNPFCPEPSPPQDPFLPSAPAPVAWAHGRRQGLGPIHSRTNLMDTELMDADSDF

| Structure (SMILES) | Recruitment of βarr2-GFP to Smo (HEK293 cells expressing βarr2-GFP and Myc-Smo, 8 μM cyclopamine at 37° C. for 5 min, versus untreated) | Recruitment of βarr2-GFP to the plasma membrane under Ptc inhibition (HEK293 cells transfected with βarr2-GFP, FLAG-Ptc, Myc-Smo and GRK2, 0.3 μM SAG at 37° C., 30 min versus 0 min) |
| --- | --- | --- |
| CC1=C2C[C@H]3[C@@H](CC=C4C[C@@H](O)CC[C@@]43C)[C@@H]2CC[C@]12O[C@@H]1C[C@H](C)CN[C@H]1[C@H]2C [cyclopamine] | ablated | – |
| CNC1CCC(N(Cc2cccc(-c3ccncc3)c2)C(=O)c2sc3ccccc3c2Cl)CC1 (centres unmarked) [SAG] | – | relieves Ptc inhibition of recruitment of βarr2-GFP to the plasma membrane |
